# Experiments:
# [1] = tested on: participants with SSc-RP; assay: SHAQ - Alternative Disability Index; type: in vivo, human
# Description: The SHAQ is used to calculate a Disability Index to assess the participant qualify of life. The eight categories assessed by the Disability Index are 1) dressing and grooming, 2) arising, 3) eating, 4) walking, 5) hygiene, 6) reach, 7) grip, and 8) common daily activities. For each of these categories, patients report the amount of difficulty they have in performing two or three specific activities.
# There are four possible responses for the Disability Index questions: • Without any difficulty=0 • With some difficulty=1 • With much difficulty=2 • Unable to do=3 • The highest score reported by the patient for any component question of the eight categories determines the score for that category. • If a component question is left blank or the response is too ambiguous to assign a score, then the score for that category is determined by the remaining completed question(s). • If all component questions are blank or if more than one answer is given, then follow up with the respondent is required. • If the respondent's mark is between the response columns, then move it to the closest one. If it's directly between the two, move it to the higher one.
# The aid and device variables are not used to calculate the alternative disability index; it is calculated by adding the scores for each of the categories and dividing by the number of categories answered. This gives a score in the 0 to 3 range.
# [2] = tested on: participants with SSc-RP; assay: SHAQ - Visual Analog Scale - Raynaud's; type: in vivo, human
# Description: The SHAQ includes a Raynaud's VAS, which will be reported at screening and each in-clinic visit. The absolute change in Raynaud-VAS, assessed by the participants response to the SHAQ question ‘In the past 7 days, how much have your Raynaud's interfered with your daily activities?’ at baseline and the end of each dosing period will be calculated similar to frequency data as before.
# The standard, validated, patient reported outcome measures tool for SSc patients, the SHAQ, was collected at the time points specified in the study schedules (FIG. 2 and FIGS. 4A and 4B) to assess the participant's quality of life. The SHAQ included a Raynaud's VAS that will also be reported separately.
# [3] = Modified ITT Population-Part A, Day 12, dose cilnidipine 10 mg, tadalafil 5 mg, alone or combined as labelled
# [4] = Modified ITT Population-Part A, dose cilnidipine 10 mg, tadalafil 5 mg, alone or combined as labelled
# [5] = Tadalafil 5 mg, SSc patients, PP, Part A
smiles,measurement,setting,value
CN1CC(=O)N2[C@H](c3ccc4c(c3)OCO4)c3[nH]c4ccccc4c3C[C@@H]2C1=O [Tadalafil],"alternative disability index, Change from Baseline, Mean",[1]; [3],−0.094
same,"alternative disability index, Change from Baseline, Median",[1]; [3],−0.125
same,"alternative disability index, Percent Change from Baseline, Mean",[1]; [3],−43.70%
same,"alternative disability index, Percent Change from Baseline, Median",[1]; [3],−20.00%
same,"alternative disability index, In Clinic Visit (Day 12), Mean",[1]; [4],0.375
same,"alternative disability index, In Clinic Visit (Day 12), Median",[1]; [4],0.250
same,"SHAQ Alternative Disability Index, Change from Baseline, Max",[1]; [5],0.00
same,"SHAQ Alternative Disability Index, Change from Baseline, Mean",[1]; [5],−0.094
same,"SHAQ Alternative Disability Index, Change from Baseline, Median",[1]; [5],−0.125
same,"SHAQ Alternative Disability Index, Change from Baseline, Min",[1]; [5],"−0.13,"
same,"SHAQ Alternative Disability Index, Change from Baseline, Q3",[1]; [5],−0.063
same,"SHAQ Alternative Disability Index, Day 12, Max",[1]; [5],1.00
same,"SHAQ Alternative Disability Index, Day 12, Mean",[1]; [5],0.375
same,"SHAQ Alternative Disability Index, Day 12, Median",[1]; [5],0.250
same,"SHAQ Alternative Disability Index, Day 12, Min",[1]; [5],"0.00,"
same,"SHAQ Alternative Disability Index, Day 12, Q1",[1]; [5],"0.000,"
same,"SHAQ Alternative Disability Index, Day 12, Q3",[1]; [5],0.750
same,"SHAQ Alternative Disability Index, Percent Change from Baseline, Max",[1]; [5],−11.1
same,"SHAQ Alternative Disability Index, Percent Change from Baseline, Mean",[1]; [5],−43.70
same,"SHAQ Alternative Disability Index, Percent Change from Baseline, Median",[1]; [5],−20.00
same,"SHAQ Alternative Disability Index, Percent Change from Baseline, Min",[1]; [5],"−100.0,"
same,"SHAQ Alternative Disability Index, Percent Change from Baseline, Q1",[1]; [5],"−100.00,"
same,"SHAQ Alternative Disability Index, Percent Change from Baseline, Q3",[1]; [5],−11.11
same,"SHAQ Visual Analogue Scale - Raynaud's, Change from Baseline, Median","[2]; Tadalafil 5 mg (N = 5), Day 12, PP Population, Part A",−0.500
same,VAS Raynaud's Change from Baseline Max,[2]; tadalafil 5 mg,−0.10
same,VAS Raynaud's Change from Baseline Mean,[2]; tadalafil 5 mg,−0.825
same,VAS Raynaud's Change from Baseline Median,[2]; tadalafil 5 mg,−0.500
same,VAS Raynaud's Change from Baseline Min,[2]; tadalafil 5 mg,−2.20
same,VAS Raynaud's Change from Baseline Q1,[2]; tadalafil 5 mg,−1.500
same,VAS Raynaud's Change from Baseline Q3,[2]; tadalafil 5 mg,−0.150
same,VAS Raynaud's Day 12 Max,[2]; tadalafil 5 mg,9.20
same,VAS Raynaud's Day 12 Median,[2]; tadalafil 5 mg,5.200
same,VAS Raynaud's Day 12 Min,[2]; tadalafil 5 mg,0.20
same,VAS Raynaud's Day 12 Q1,[2]; tadalafil 5 mg,2.200
same,VAS Raynaud's Day 12 Q3,[2]; tadalafil 5 mg,7.700
same,VAS Raynaud's Percent Change from Baseline Max,[2]; tadalafil 5 mg,−3.1%
same,VAS Raynaud's Percent Change from Baseline Mean,[2]; tadalafil 5 mg,−19.71%
same,VAS Raynaud's Percent Change from Baseline Median,[2]; tadalafil 5 mg,−20.67%
same,VAS Raynaud's Percent Change from Baseline Min,[2]; tadalafil 5 mg,−34.4%
same,VAS Raynaud's Percent Change from Baseline Q1,[2]; tadalafil 5 mg,−33.85%
same,VAS Raynaud's Percent Change from Baseline Q3,[2]; tadalafil 5 mg,−5.56%

# Source: US20240358692A1, “TREATMENT OF SCLERODERMA” (Aisa Pharma, Inc., priority 2023, published 2024)
